# According to patent US9238684B2, “SPANX-B polypeptides and their use” (The United States of America, as represented by the …, priority 2009, dated 2016):
# B1: SPANX-B protein: Recombinant SPANX-B protein fused with maltose binding protein (MBP), produced and purified from E. coli (protein)
# chain: MGQQSSVRRLKRSVPCESNEANEANEANKTMPETPTGDSDPQPAPKKMKTSESSTILVVRYRRNVKRTSPEELLNDHARENRINPDQMEEEEFIEITTERPKK
# Assays:
# [1] = system: murine anti-SPANX-B antibody; test: ELISA on peptide-coated plates with murine anti-SPANX-B antibody; type: binding; conditions: Ab from mice DNA immunized with SPANX-B-expressing plasmid; FIG. 1B
# Method: FIGS. 1A-1F are digital images, a graph and a schematic diagram illustrating the specificity of antibody and expression of SPANX-B in human immortalized tumor cell lines. FIG. 1A is a digital image showing ANEA-I0117 antibody recognized SPANX-B expressed in mouse erythroleukemia RL5 cells. Western blotting results are shown with ANEA-I0117 anti-SPANX-B antibody on lysates of RL5 cells (2 μl, 5 μl and 10 μl, respectively) transiently transduced with plasmid expressing SPANX-B (SPANX-B). Control lysates were made from untransduced parental RL5 cells (Control). FIG. 1B is a graph showing murine anti-SPANX-B antibody, which was generated from mice DNA immunized with plasmid expressing SPANX-B, recognized unique SPANX-B-specific insert of SPANX-B (encoded in Pep-G1 and Pep-2 peptides), ELISA assay on plates coated with various peptides that are depicted in FIG. 1C. […] FIG. 1D is a digital image showing the expression of SPANX-B protein evaluated by Western blotting with ANEA-I0117 Ab (1:5000) in lysates of cell lines, such as HEK293 (HEK), Jurkat, CRL 7002, UACC1273, 938 Mel, CCRF-CEM (CEM), and normal human donor PBMC (upper panel). The blot was stripped and hybridized with anti-actin antibody (lower panel). FIGS. 1E and 1F are digital images obtained from an immunohistochemistry and immunofluorescent assay, respectively, of melanoma (UACC1273) and ovarian carcinoma (2008 and OVCAR3) cell lines. The cells were stained with ANEA-I0117 Ab (right and bottom panels in FIG. 1E and FIG. 1F, respectively); and control IgG (left and upper panels in FIG. 1E and FIG. 1F, respectively).
# SPANX-B can be often found in the list of highly expressed genes in microarray study of human tumors, including hematological malignancies and breast cancer (see, for example, Minn et al., Nature 436(7050):518-24, 2005). To confirm this, expression was tested using two antibodies, a rabbit 3ANEA Ab and mouse SPANX-B Ab. […] The second SPANX-B Ab was produced from mice DNA immunized with SPANX-B-expressing plasmid. […] In contrast, it reacted with a second peptide Pep-2 that only represented unique for SPANX-B insert of Pep-G1 (FIGS. 1B and C).
# [2] = system: SPANX-B-specific CD4^+ T cell lines; test: IFNγ secretion (ELISA) by CD4+ T cell lines stimulated with antigen-pulsed autologous DCs; type: cell-based, human; conditions: for IFNγ secretion by CD4+ T cell lines on stimulation with pulsed DCs: CD4+ T cell lines generated with SPANX-B protein-treated autologous DCs, FIGS. 3A-C; for IFNγ secretion by SPANX-B-specific CD4+ T cell line: irradiated mature DCs pulsed with 1 μg/ml peptide, FIG. 3A; for generation of SPANX-B-specific CD4+ T cell lines using the peptide: lines recognized DCs incubated with SPANX-B protein dose-dependently, FIGS. 3C, 3D
# Method: T cell stimulation: To generate CD4^+ T cell lines, CD4^+ T cells (2×10^6) were stimulated with autologous DC pulsed with either SPANX-B protein (2 μg/mL), or with SPANX-B peptides (10 μg/mL) in the presence of IL-2 (20 U/mL) for seven days. T cells were re-stimulated once every week two times. To generate CD8^+ CTL lines, 2×10^6 CD8^+ T cells were stimulated with autologous DC pulsed with either SPANX-B protein (2 μg/mL) and SPANX-B peptides (10 μg/mL) in the presence of IL-2 (20 U/mL) and IL-15 (10 ng/mL) for seven days. T cells were weekly restimulated with peptide-loaded DCs for several times. To test antigen-specific activity of CD4^+ T cell lines, all experiments were performed in triplicates in 96-well plates with 1×10^5 CD4^+ T cells/well. […] T cell activity was judged by IFNγ secretion in culture supernatants by ELISA after 48 hours incubation (see below and Schiavo et al., Blood 107(12):4597-605, 2006). For most experiments, unless specified, 1:5 Target:Effector ratio was used.
# Detection of IFNγ by ELISA: ELISA was performed as described elsewhere (Schiavo et al., Blood 107(12):4597-605, 2006). Briefly, 96-well flat-bottom plates were coated with 2 μg/mL of anti-human IFNγ antibody (BD pharmingen, San Jose, Calif.) to capture secreted IFNγ. The captured IFNγ was detected with 0.5 μg/mL biotin-conjugated mouse anti-human IFNγ antibody and streptavidin-HRP (BD pharmingen, San Jose, Calif.). The assay was visualized with TMB peroxidase solution B (KPL, Gaithersburg, Md.) and read at OD450.
# [3] = system: SPANX-B; test: DNA immunization of mice, serum ELISA on peptide-coated plates; type: in vivo; conditions: plates coated with peptide 5 μg/ml; FIG. 7
# Method: Mice were intradermally immunized twice with 25 μg plasmid DNA constructs including MIP-3α-SPANX-B. Sera were tested for SPANX-B antibodies by ELISA assay in 96-well plates coated with the indicated peptides (5 μg/ml). […] The other was near the N-terminus, encoded by Pep-G1 (SEQ ID NO: 14) and Pep-2 (SEQ ID NO: 2) and Pep-3 (SEQ ID NO: 3).
# [4] = system: UACC1273 melanoma cells; test: CTL 6-hour 51Cr release assay on UACC1273; type: cell-based, human; conditions: SPANX-B-expressing, HLA-A2-positive target; FIGS. 6A-C
# Method: (§1) CTL assay and HLA blocking experiments: Tumor cell lines (target cells, 2×10^6) were incubated in 200 μL of fetal bovine serum (FBS) with 200 μCi of Na2^51CrO4 (PerkinElmer, Billerica, Mass.) for 2 hours at 37° C. Cells were washed with RPMI three times and resuspended in cRPMI with 10% FBS at 1×10^5 cells/mL. CTL assay was performed in triplicate in 96-well round bottom plates with 1×10^4/well ^51Cr-labeled target cells. The target cells were co-cultured at indicated ratios with effector cells (peptide-specific CD8^+ T cells) for 6 hours. The specific ^51Cr-release is calculated using formula: ((test sample release−spontaneous release)/(maximum release−spontaneous release))×100). Maximum release is for the target cells alone lysed with 2% Triton X-100.
# [5] = system: SPANX-B-specific CD8^+ T cell lines; test: IFNγ secretion (ELISA) by CD8+ T cell lines stimulated with antigen-pulsed autologous DCs; type: cell-based, human; conditions: for IFNγ secretion by SPANX-B-specific CD8+ T cells on stimulation with pulsed DCs: irradiated autologous DCs, lines generated with SPANX-B protein, FIG. 5A
# [6] = system: HEK293 cells; test: CTL 51Cr release assay on HEK293 cells pulsed with Pep-2; type: cell-based, human; conditions: FIGS. 6A-C; for lysis of HLA-A2-expressing HEK293 cells pulsed with Pep-2 by CD8+ T cell lines generated to the antigen: HEK-A2, pulsed with 1 μg/ml Pep-2; for lysis of HLA-A2-negative parental HEK293 cells by CD8+ T cell lines generated to the antigen: HEK
# Method: as §1
# [7] = system: primary human melanoma cells; test: CTL 51Cr release assay on primary human melanoma cells; type: cell-based; conditions: for lysis of HLA-A2-expressing primary melanoma tumors by CD8+ lines generated to the antigen: Tc526, Tc624 and Tc2492; for lysis of HLA-A2-negative primary melanoma tumors by CD8+ lines generated to the antigen: Tc2547 and Tc938, FIG. 6E
# Method: as §1
molecule,measurement,setting,value
QPAPKKMKTSESSTILVVRYRRNV (Synthetic peptide Pep-6),recognition of peptide by mouse SPANX-B Ab (ELISA),[1],but not other region-specific peptides
same,IFNγ secretion by CD4+ T cell lines on stimulation with pulsed DCs,[2],failed to respond
KRSVPCESNEANEANEANKTM (Synthetic peptide Pep-G1),recognition of peptide by mouse SPANX-B Ab (ELISA),[1],preferentially recognized
same,B cell epitope recognized by sera of immunized mice (ELISA),[3],Immunodominant B cell epitopes
same,IFNγ secretion by CD4+ T cell lines on stimulation with pulsed DCs,[2],activated the CD4^+ T cell lines to secrete IFNγ
same,IFNγ secretion by SPANX-B-specific CD4+ T cell line,[2],can be also activated to secrete IFNγ
same,generation of SPANX-B-specific CD4+ T cell lines using the peptide,[2],readily generated
ENRINPDQMEEEEFIEITTERPKK (Synthetic peptide Pep-8),B cell epitope recognized by sera of immunized mice (ELISA),[3],Immunodominant B cell epitopes
KRTSPEELVNDHARENRINPDQME (Synthetic peptide Pep-7),B cell epitope recognized by sera of immunized mice (ELISA),[3],Immunodominant B cell epitopes
ANEANEANKTMPETPTGDSDP (Synthetic peptide Pep-G2),recognition of peptide by mouse SPANX-B Ab (ELISA),[1],but not other region-specific peptides
same,IFNγ secretion by CD4+ T cell lines on stimulation with pulsed DCs,[2],failed to respond
LVVRYRRNV (Synthetic peptide Pep-4),lysis of UACC1273 melanoma cells by CD8+ T cell lines generated to the antigen,[4],killed UACC1273 melanoma cells
same,recognition of SPANX-B protein-pretreated DCs by CD8+ T cells generated with peptide-pulsed DCs,[5],also recognized SPANX-B protein-pretreated DCs
same,IFNγ secretion by SPANX-B-specific CD8+ T cells on stimulation with pulsed DCs,[5],secreted IFNγ
same,lysis of HLA-A2-expressing HEK293 cells pulsed with Pep-2 by CD8+ T cell lines generated to the antigen,[6],lysed HLA-A2-expressing HEK293 cells that were pulsed with Pep-2
same,lysis of HLA-A2-negative parental HEK293 cells by CD8+ T cell lines generated to the antigen,[6],did not kill
same,lysis of HLA-A2-expressing primary melanoma tumors by CD8+ lines generated to the antigen,[7],recognized and lysed
same,lysis of HLA-A2-negative primary melanoma tumors by CD8+ lines generated to the antigen,[7],not affected
GQQSSVRRL (Synthetic peptide Pep-3),recognition of peptide by mouse SPANX-B Ab (ELISA),[1],but not other region-specific peptides
same,B cell epitope recognized by sera of immunized mice (ELISA),[3],Immunodominant B cell epitopes
RSVPCESNEVNETMPETPTGDSDP (Synthetic peptide Pep-5),recognition of peptide by mouse SPANX-B Ab (ELISA),[1],failed to recognize
same,IFNγ secretion by CD4+ T cell lines on stimulation with pulsed DCs,[2],activated the CD4^+ T cell lines to secrete IFNγ
same,IFNγ secretion by SPANX-B-specific CD4+ T cell line,[2],can be also activated to secrete IFNγ
same,generation of SPANX-B-specific CD4+ T cell lines using the peptide,[2],readily generated
"RSAPCASAEVNE (Synthetic peptide Pep-9 Mod) [Pep-9-Mod, reference compound]","IFNγ secretion by SPANX-B-specific CD4+ T cell lines, fine mapping of the epitope","[2]; autologous DCs pulsed with peptide, lines generated to SPANX-B protein, Pep-1 or Pep-G1, FIG. 3D",did not respond
"ALWFRNHFVFGGGTK (Synthetic peptide MOPC (9)) [control murine class II peptide, reference compound]",IFNγ secretion by CD4+ T cell lines on stimulation with pulsed DCs,[2],failed to respond
B1,lysis of UACC1273 melanoma cells by CD8+ T cell lines generated to the antigen,[4],killed UACC1273 melanoma cells
same,"SPANX-B-specific CD8+ T cell lines generated, donors","[5]; HLA-A2-positive peripheral blood CD8+ T cells, DCs incubated with SPANX-B protein",3/3
same,IFNγ secretion by SPANX-B-specific CD8+ T cells on stimulation with pulsed DCs,[5],secreted IFNγ
same,lysis of HLA-A2-expressing HEK293 cells pulsed with Pep-2 by CD8+ T cell lines generated to the antigen,[6],lysed HLA-A2-expressing HEK293 cells that were pulsed with Pep-2
same,lysis of HLA-A2-negative parental HEK293 cells by CD8+ T cell lines generated to the antigen,[6],did not kill
same,IFNγ secretion by CD4+ T cell lines on stimulation with pulsed DCs,[2],specifically recognized SPANX-B-treated DCs
same,lysis of HLA-A2-expressing primary melanoma tumors by CD8+ lines generated to the antigen,[7],recognized and lysed
same,lysis of HLA-A2-negative primary melanoma tumors by CD8+ lines generated to the antigen,[7],not affected
